Source: patent publication US20230242526A1 (Zentaur Therapeutics International Limited, priority 2020, published 2023)

Tests used:
[1] = system: human breast squamous HCC1806 cell line; experiment: CyQUANT Direct cell proliferation assay, HCC1806; assay type: cell-based; conditions: HCC1806, 168 h, 7 days
Source text: (§1) The human ovarian carcinoma OVCAR3 cell line (ATCC HTB-161™) or human breast squamous HCC1806 cell line (ATCC CRL 2335) were obtained from American Type Culture Collection (ATCC), and maintained in culture media according to the supplier's specification.
(§2) The CyQUANT® Direct Cell Proliferation Assay Kit (Invitrogen™, catalog No. G35012) was utilized to test the inhibitory activities of the CDK2 inhibitors described in this disclosure against OVCAR3 or HCC1806 tumor cells.
(§3) CyQUANT® Direct Cell Proliferation Assay: The spent medium from the purchased tumor cell culture plate was removed and the tumor cells were washed with PBS buffer twice. Trypsin (VWR catalog No. 0458-25G) was added to digest the tumor cells until tumor cells appeared round shaped and to dissociate adherent cells from the plate wall in which they are being cultured. Then RPMI-1640 media (HCC1806, Gibco™ catalog No, A10491-01) with 10% fetal bovine serum (FBS) (Hyclone™ catalog No. SV30160.03), or RPMI-1640 media (OVCAR-3, Gibco™ catalog No. 10370-021) with 20% FBS and 0.01 mg/mL insulin was added to stop the trypsin digestion reaction. The tumor cells were lightly agitated with a liquid transfer pipette to cause tumor cells suspended in the culture media. The cells were counted. The complete medium was used to prepare tumor cell suspension.
(§4) OVCAR3 or HCC1806 cells were seeded at 40 μL/well in 384-well plates in growth media containing FBS and cultured 24 hours in the incubator at 37° C., 5% CO2. […] Compound solutions were added by Agilent Bravo liquid handler. […] The control wells contained the growth medium having 0.1% DMSO. Cells were incubated at 37° C., 5% CO2 for 7 days.
(§5) CYQUANT Direct Cell Proliferation Assay (Molecular Probes, Eugene, Oreg.) was then performed following manufacturer's instructions to prepare the detection reagents. 50 μL of detection reagent was aliquot and added to each well and the cells were incubated at 37° C. for 1 hr.
(§6) The cell culture plates were placed on TECAN M1000 microplate reader to detect the fluorescence intensity at 508 nm excitation and 527 nm emission wavelengths. Graphpad Prism 6.0 software was used for data processing, preparing cell growth curve, calculating percentage inhibition on cell growth. IC50 values were calculated by concentration-response curve fitting utilizing a four-parameter analytical method using GraphPad Prism software.

[2] = system: human ovarian carcinoma OVCAR3 cell line; experiment: CyQUANT Direct cell proliferation assay, OVCAR-3; assay type: cell-based; conditions: OVCAR-3, 168 h, 7 days
Source text: as §1, §2, §3, §4, §5, §6

in vitro [3] = conditions: microsomes
Protocol: (§7) Human liver microsomes (cat. No. 452161), mouse liver microsomes (cat. No. 452701), were purchased from Corning.
(§8) Samples were analyzed using LC-MS/MS using a SCIEX API 4000 mass spectrometer coupled with Agilent HPLC analytical system. After separation on a ZORBAX XDB-C18 column (5 μm, 50×2.1 mm, column No. 50-282) using an acetonitrile-water gradient system, peaks were analyzed by mass spectroscopy (MS) using ESI ionization in Q1 and Q3 scan mode.
(§9) The LC and MS are all controlled by Analyst software.
(§10) The liver microsomes were incubated with 1.0 μM of the testing compound at 37° C. The incubation mixture contained 100 mM PBS buffer (pH=7.4), 3 mM MgCl2 and 1 mM NADPH. The concentration of liver microsome in the incubation mixture was 0.5 mg/mL for testing compound, and 0.2 mg/mL for MDZ and the total volume is 0.2 mL. […] Aliquots were withdrawn at time points of 0 min, 5 min and 20 min for MDZ. The reactions were terminated by transferring the aliquots to a methanol solution containing the internal standard […] for analytical quantification. The quenched samples were analyzed by LC-MS/MS. The incubations were carried out in duplicates. The metabolic stability of the testing compounds by the liver microsomes of human and mice is expressed as elimination half-life (t1/2). The results are shown as the means of duplicate determinations±SD.

in vitro [4] = conditions: microsomes; remark: listed apart in the source
Protocol: as §7, §8, §9, §10

CDK9/Cyclin T1 = CDK9/Cyclin T1 (Homo sapiens, UniProt P50750); experiment: CDK9/Cyclin T1 kinase assay; assay type: biochemical
Chain of CDK9/Cyclin T1 (P50750 whole entry): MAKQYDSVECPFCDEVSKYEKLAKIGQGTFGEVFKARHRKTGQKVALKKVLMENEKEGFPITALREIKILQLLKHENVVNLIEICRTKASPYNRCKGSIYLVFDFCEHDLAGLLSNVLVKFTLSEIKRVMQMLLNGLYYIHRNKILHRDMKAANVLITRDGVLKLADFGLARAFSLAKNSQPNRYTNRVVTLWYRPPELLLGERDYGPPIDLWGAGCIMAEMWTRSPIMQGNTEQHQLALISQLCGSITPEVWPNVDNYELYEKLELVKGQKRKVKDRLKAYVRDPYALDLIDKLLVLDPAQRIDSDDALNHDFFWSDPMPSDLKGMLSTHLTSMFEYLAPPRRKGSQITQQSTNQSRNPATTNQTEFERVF
Chain of CDK9/Cyclin T1 (O60563 whole entry partner): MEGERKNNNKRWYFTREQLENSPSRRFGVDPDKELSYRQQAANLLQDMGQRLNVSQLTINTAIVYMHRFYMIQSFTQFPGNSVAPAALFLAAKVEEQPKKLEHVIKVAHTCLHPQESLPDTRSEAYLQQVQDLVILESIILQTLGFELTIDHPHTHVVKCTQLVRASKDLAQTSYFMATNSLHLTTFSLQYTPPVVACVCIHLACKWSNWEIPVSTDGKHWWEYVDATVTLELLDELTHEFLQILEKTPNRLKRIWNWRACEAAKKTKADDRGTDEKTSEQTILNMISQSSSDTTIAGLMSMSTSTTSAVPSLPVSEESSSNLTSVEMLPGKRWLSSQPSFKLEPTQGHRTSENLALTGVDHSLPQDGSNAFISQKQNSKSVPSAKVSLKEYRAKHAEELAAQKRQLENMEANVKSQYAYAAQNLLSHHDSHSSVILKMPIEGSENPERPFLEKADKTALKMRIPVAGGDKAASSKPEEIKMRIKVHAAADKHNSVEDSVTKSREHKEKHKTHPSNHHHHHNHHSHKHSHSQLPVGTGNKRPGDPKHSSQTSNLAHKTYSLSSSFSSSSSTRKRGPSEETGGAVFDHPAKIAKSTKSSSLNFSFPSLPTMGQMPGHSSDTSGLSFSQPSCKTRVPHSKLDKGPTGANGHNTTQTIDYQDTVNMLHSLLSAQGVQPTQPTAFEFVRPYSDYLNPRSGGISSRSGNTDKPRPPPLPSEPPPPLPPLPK
Protocol: (1). Recombinant enzymes CDK1, CDK2, CDK4, CDK6, CDK9, cyclin B1, cyclin A2, cyclin D3, cyclin E1, cyclin T1 were cloned and purified at Wuxi Biortus Biochemistry Co. Ltd.
(8) Peptide substrate-CDK9 (Ahx-GSRTPMY-NH2, Scilight-Peptide, Cat. C0769102).
The test compounds were dissolved and diluted in DMSO. A stock DMSO solution of the test compound of the invention was prepared by dissolving the compound in DMSO to form a 10 mM solution.
2 μL of testing compound solutions and 5 μL of enzyme solution were added into the 384-well microplate followed by a 10 minute incubation. The reaction was then initiated by the addition of 5 μL of peptide substrate and ATP mixture solution and incubated at 27° C. for 30 minutes. The enzyme reaction in each well was terminated by adding 4 μL of 120 mM EDTA solution. Each assay was carried out in duplicates.
DMSO was used as negative control (0%) for enzyme activity. 20 μM Staurosporine was used as positive control (100%) for enzyme activity.
Plates were read for fluorescence on a Caliper EZ Reader II by separating the fluorescent labeled substrate from the enzyme phosphorylation product by electrophoresis. Data were collected and analyzed using GraphPad Prism version 6.0 software.
Dose-response curves were plotted from inhibition data generated, each in duplicate, from 10 point serial dilutions of inhibitory compounds. Concentration of compound was plotted against % kinase activity. To generate IC50 values, the dose-response curves were then fitted to a standard sigmoidal curve and IC50 values were derived by nonlinear regression analysis.

SMILES | IC50 [1] | IC50 [2] | half-life at 1 μM (in vitro [3]; human, pH 7.4, t1/2 human) | half-life at 1 μM (in vitro [4]; mouse, pH 7.4, t1/2 mouse) | half-life at 1 μM (in vitro [3]; pH 7.4) | half-life at 1 μM (in vitro [4]; pH 7.4) | IC50 (CDK9/Cyclin T1)
[2H]C([2H])([2H])c1cc2cnc(NC3CCN(S(C)(=O)=O)CC3)nc2n(C2CCCC2(C)O)c1=O (racemic) [Comp. 11, (±)-8-(2-hydroxy-2-methylcyclopentyl)-6-(methyl-d3)-2-((1-(methylsulfonyl)piperidin-4-yl)amino)pyrido[2,3-d]pyrimidin-7(8H)-one] | 0.0286 µM | 0.0213 µM |  |  |  |  | 
C[C@@]1(O)CCC[C@H]1n1c(=O)ccc2cnc(NC3CCN(S(C)(=O)=O)CC3)nc21 (racemic) [Comp. 1, (±)-8-(2-hydroxy-2-methylcyclopentyl)-2-((1-(methylsulfonyl)piperidin-4-yl)amino)pyrido[2,3-d]pyrimidin-7(8H)-one, reference compound] | 0.0865 µM | 0.0543 µM |  |  |  |  | 
[2H]C1(Nc2ncc3ccc(=O)n([C@@H]4CCC[C@@]4(C)O)c3n2)CCN(S(C)(=O)=O)CC1 [Comp. 47, (−)-8-((1R,2R)-2-hydroxy-2-methylcyclopentyl)-2-((1-(methylsulfonyl)piperidin-4-yl-4-d)amino)pyrido[2,3-d]pyrimidin-7(8H)-one] |  |  | 990 min | 24.5 min |  |  | 
Cc1cc2cnc(NC3CCN(S(C)(=O)=O)CC3)nc2n([C@@H]2CCC[C@@]2(C)O)c1=O (racemic) [Comp. 3, (±)-8-(2-hydroxy-2-methylcyclopentyl)-6-methyl-2-((1-(methylsulfonyl)piperidin-4-yl)amino)pyrido[2,3-d]pyrimidin-7(8H)-one, reference compound] | 0.0534 µM | 0.0385 µM |  |  |  |  | 
CCN1CCN(Cc2ccc(Nc3ncc(F)c(-c4cc(F)c5nc(C)n(C(C)C)c5c4)n3)nc2)CC1 [LY2835219] | 0.161 µM | 4.37 µM |  |  |  |  | 
Cc1ncc2n1-c1ccc(Cl)cc1C(c1ccccc1F)=NC2 [Midazolam, reference compound] |  |  |  |  | 16.3 min | 4.59 min | 
C[C@@]1(O)CCC[C@H]1n1c(=O)ccc2cnc(NC3CCN(S(C)(=O)=O)CC3)nc21 [Comp. 6, (−)-8-(2-hydroxy-2-methylcyclopentyl)-2-((1-(methylsulfonyl)piperidin-4-yl)amino)pyrido[2,3-d]pyrimidin-7(8H)-one, reference compound] | 0.0561 µM | 0.0393 µM | 693 min | 24.2 min |  |  | 6.45 µM
[2H]C1([2H])CN(S(C)(=O)=O)CC([2H])([2H])C1Nc1ncc2ccc(=O)n([C@@H]3CCC[C@@]3(C)O)c2n1 [Comp. 61, (−)-8-((1R,2R)-2-hydroxy-2-methylcyclopentyl)-2-((1-(methylsulfonyl)piperidin-4-yl-3,3,5,5-d4)amino)pyrido[2,3-d]pyrimidin-7(8H)-one] | 0.0692 µM |  | 578 min | 23.5 min |  |  | 
[2H]C(F)(F)c1cc2cnc(NC3CCN(S(C)(=O)=O)CC3)nc2n(C2CCCC2(C)O)c1=O (racemic) [Comp. 20, (±)-6-(difluoromethyl-d)-8-(2-hydroxy-2-methylcyclopentyl)-2-((1-(methylsulfonyl)piperidin-4-yl)amino)pyrido[2,3-d]pyrimidin-7(8H)-one] | 0.125 µM | 0.104 µM |  |  |  |  | 6 µM
